Assay results reported in the NIST ThermoML archive (doi:10.1016/j.jct.2012.02.036).
Values joined by “and” are separate entries in the source; they are usually repeats but may differ in a detail not shown here. Equal entries are not always repeated. ± gives the expanded uncertainty stated by the source.

Tests used:
[1] = Liquid; for mass density: Vibrating tube method
[2] = xn = mol fraction of the nth substance listed; settings: 101 kPa, Liquid, x2 = 0; for mass density: Vibrating tube method
[3] = 293.15 K, 101.33 kPa, Capillary tube (Ostwald / Ubbelohde) method
[4] = 303.15 K, 101.33 kPa, Capillary tube (Ostwald / Ubbelohde) method
[5] = 313.15 K, 101.33 kPa, Capillary tube (Ostwald / Ubbelohde) method
[6] = 323.15 K, 101.33 kPa, Capillary tube (Ostwald / Ubbelohde) method
[7] = 333.15 K, 101.33 kPa, Capillary tube (Ostwald / Ubbelohde) method

Row | Compound | viscosity ([1]; 293.15 K, 101 kPa) | mass density ([1]; 293.15 K, 101 kPa) [kg/m3] | viscosity [1, 3] [mPa·s] | mass density ([1]; 293.15 K, 101.33 kPa) [kg/m3] | viscosity ([1]; 303.15 K, 101 kPa) [mPa·s] | mass density ([1]; 303.15 K, 101 kPa) [kg/m3] | viscosity [1, 4] [mPa·s] | mass density ([1]; 303.15 K, 101.33 kPa) [kg/m3] | viscosity ([1]; 313.15 K, 101 kPa) [mPa·s] | mass density ([1]; 313.15 K, 101 kPa) [kg/m3] | viscosity [1, 5] [mPa·s] | mass density ([1]; 313.15 K, 101.33 kPa) [kg/m3] | viscosity ([1]; 323.15 K, 101 kPa) [mPa·s] | mass density ([1]; 323.15 K, 101 kPa) [kg/m3] | viscosity [1, 6] [mPa·s] | mass density ([1]; 323.15 K, 101.33 kPa) [kg/m3] | viscosity ([1]; 333.15 K, 101 kPa) | mass density ([1]; 333.15 K, 101 kPa) [kg/m3] | viscosity [1, 7] [mPa·s] | mass density ([1]; 333.15 K, 101.33 kPa) [kg/m3] | other results
1 | NCCCO [3-amino-1-propanol] | 40.45 ± 1.7 mPa·s and 40.46 ± 1.7 mPa·s | 987.65 ± 0.29 | 40.42 ± 0.2 | 987.55 ± 0.21 | 23.98 ± 1 | 979.65 ± 0.29 | 23.87 ± 0.12 | 979.53 ± 0.22 | 15.31 ± 0.68 | 971.61 ± 0.29 | 15.27 ± 0.078 | 971.47 ± 0.22 | 10.22 ± 0.48 | 963.52 ± 0.29 | 10.22 ± 0.054 | 963.37 ± 0.22 | 6.961 ± 0.35 mPa·s and 6.962 ± 0.35 mPa·s | 955.38 ± 0.29 | 7.123 ± 0.04 | 955.22 ± 0.22 | –
2 | CC(C)CO [2-methyl-1-propanol] | 4.197 ± 0.23 mPa·s | 801.8 ± 0.2 | 4.085 ± 0.025 | 801.75 ± 0.24 | 2.873 ± 0.16 | – | 2.877 ± 0.018 | 793.99 ± 0.24 | 1.926 ± 0.11 | – | 2.091 ± 0.013 | 786.04 ± 0.24 | 1.232 ± 0.074 | – | 1.576 ± 0.01 | 777.85 ± 0.24 | 0.665 ± 0.044 mPa·s | – | 1.124 ± 0.007 | 769.36 ± 0.24 | –
3 | CC(C)CO [2-methyl-1-propanol] + NCCCO | – | – | – | – | – | – | – | – | – | – | – | – | – | – | – | – | – | – | – | – | mass density ([2]; 293.15 K): 801.8 ± 0.2 kg/m3; viscosity ([2]; 293.15 K): 4.197 ± 0.23 mPa·s; mass density ([2]; 303.15 K): 793.99 ± 0.24 kg/m3; viscosity ([2]; 303.15 K): 2.873 ± 0.16 mPa·s; mass density ([2]; 313.15 K): 786.04 ± 0.24 kg/m3; viscosity ([2]; 313.15 K): 1.926 ± 0.11 mPa·s; mass density ([2]; 323.15 K): 777.85 ± 0.24 kg/m3; viscosity ([2]; 323.15 K): 1.232 ± 0.074 mPa·s; mass density ([2]; 333.15 K): 769.36 ± 0.24 kg/m3
4 | CC(C)O [propan-2-ol] | 2.318 ± 0.13 mPa·s | 785.36 ± 0.24 | 2.362 ± 0.015 | 785.25 ± 0.24 | 1.596 ± 0.094 | 776.87 ± 0.24 | 1.769 ± 0.011 | 776.78 ± 0.24 | 0.996 ± 0.062 | 768.07 ± 0.24 | 1.33 ± 0.0086 | 767.98 ± 0.24 | – | 758.89 ± 0.24 | 1.014 ± 0.0068 | 758.82 ± 0.25 | – | 749.25 ± 0.25 | – | 749.2 ± 0.25 | –
5 | CC(C)O [propan-2-ol] + NCCCO | – | – | – | – | – | – | – | – | – | – | – | – | – | – | – | – | – | – | – | – | mass density ([2]; 293.15 K): 785.36 ± 0.24 kg/m3; viscosity ([2]; 293.15 K): 2.318 ± 0.13 mPa·s; mass density ([2]; 303.15 K): 776.87 ± 0.24 kg/m3; viscosity ([2]; 303.15 K): 1.596 ± 0.094 mPa·s; mass density ([2]; 313.15 K): 768.07 ± 0.24 kg/m3; viscosity ([2]; 313.15 K): 0.996 ± 0.062 mPa·s; mass density ([2]; 323.15 K): 758.89 ± 0.24 kg/m3; mass density ([2]; 333.15 K): 749.25 ± 0.25 kg/m3
